Assay results as given in patent US20230277568A1, “METHOD OF TREATMENT FOR […] PSILOCIN INFUSION” (Eleusis Therapeutics US, Inc., priority 2020, published 2023).
“Also recorded” adds a separate entry of the source.

Tests used:
WKY rats = test: Forced swim test in rat model of depression; format: in vivo; conditions: FST 21 days after injection
Protocol: A rat model of depression was used to assess the antidepressant effect of psilocin alone or in combination with lorazepam. WKY rats were divided into 3 groups (n=8 animals per group) and treated with (i) 1 mg/kg of psilocin injected as a bolus dose into the tail vein (PSI); (ii) 1.8 mg/kg of lorazepam injected 30 i.p. minutes prior to a 1 mg/kg tail vein injection of psilocin (P+L); or (iii) saline (SAL; as a control group). The dose of lorazepam was chosen to be a moderate/low non-sedating but anxiolytic dose in rats after consultation with an expert in the field of benzodiazepine's effects in rats.
After injection treatment, rats were maintained in their home cage for three weeks (21 days) prior to testing by forced swim test (FST) as described in Hibicke et al., ACS Chem. Neurosci. 2020, 11, 6, 864-871.
Forced Swim Test methodology: During a pre-exposure, rats were placed into a plastic cylindrical tank (114 cm×30.5 cm) that contained 30 cm of water at 28-30° C. The water depth was such that the rats could not support themselves by touching the bottom of the tank with their hind paws, and their tails could not touch the bottom of the tank while keeping their noses above water. After a 15 min swim, the rats were removed, dried with paper towels, and replaced in their home cages. Fresh water was used for each animal. For the testing, a video camera was mounted to the side of the tank, and the rats were exposed to a 5 min swim under the conditions described above and then removed, dried with paper towels, and returned to their home cages. The 5 min swim was recorded for later scoring for immobility, swimming, and climbing. FST scoring was performed by a trained scorer. Immobility was defined as no active attempts to escape while maintaining a floating posture in which the rats make only the movements necessary to keep their heads above water. Swimming was defined as actively attempting escape with motions directed outward against the wall of the cylinder. Climbing was defined as actively attempting escape with motions directed upward against the wall of the cylinder.

5-HT2A receptor = 5-HT2A receptor (Homo sapiens, UniProt P28223); conditions: background statement; cited from earlier work
[1] = 1.8 mg/kg lorazepam i.p. 30 minutes prior to 1 mg/kg i.v. psilocin

Sequence of 5-HT2A receptor (P28223 whole entry): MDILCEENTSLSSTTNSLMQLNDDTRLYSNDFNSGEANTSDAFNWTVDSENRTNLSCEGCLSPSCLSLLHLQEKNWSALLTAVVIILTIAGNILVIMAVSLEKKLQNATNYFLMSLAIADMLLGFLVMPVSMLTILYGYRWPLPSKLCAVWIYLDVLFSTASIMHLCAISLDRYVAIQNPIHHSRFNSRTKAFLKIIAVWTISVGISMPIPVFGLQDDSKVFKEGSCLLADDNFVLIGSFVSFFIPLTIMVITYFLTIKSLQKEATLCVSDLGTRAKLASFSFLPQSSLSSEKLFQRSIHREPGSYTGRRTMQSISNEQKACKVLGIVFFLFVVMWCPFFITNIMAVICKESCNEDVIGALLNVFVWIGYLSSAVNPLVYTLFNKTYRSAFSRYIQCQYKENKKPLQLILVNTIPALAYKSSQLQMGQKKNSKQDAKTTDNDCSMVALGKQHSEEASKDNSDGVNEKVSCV

| Structure (SMILES) | effect of lorazepam pretreatment on the effects of psilocin, immobility measure (WKY rats; [1]) | effect of lorazepam pretreatment on the effects of psilocin, swimming behavior (WKY rats; [1]) | effect of lorazepam pretreatment on the effects of psilocin, immobility measure (WKY rats; 1.8 mg/kg lorazepam i.p. 30 minutes prior to 1 mg/kg i.v. psilocin, listed as lorazepam) | affinity for the 5-HT2A receptor (5-HT2A receptor) | antidepressant-like behaviors in forced swim test (WKY rats; 1 mg/kg psilocin single i.v. bolus (tail vein), 1 mg/kg) |
| --- | --- | --- | --- | --- | --- |
| O=C1Nc2ccc(Cl)cc2C(c2ccccc2Cl)=NC1O (centres unmarked) [Lorazepam] | slight but significant effect to blunt the effects of psilocin | no significant effect | slight, but significant effect | – | – |
| CN(C)CCc1c[nH]c2cccc(O)c12 [psilocin, 4-hydroxy-N,N-dimethyltrypamine] | – | – | – | high affinity | as efficacious in producing long-lasting antidepressant-like behaviors in this model as a single i.p. administration of psilocybin of the same dose; also recorded: as efficacious in producing long-lasting antidepressant-like behaviors in our model as a single i.p. administration of psilocybin of the same dose |
